Data reported in patent US20020187484A1, “Molecular break lights probes for detecting nucleotide cleavage” (priority 2000, published 2002).
Marks after values point to notes of the source that are not given here.

Assays:
Assay type in all cases: biochemical
[1] = tested on: supercoiled pBlusecript plasmid DNA; assay: Calicheamicin-induced cleavage of supercoiled plasmid DNA, protection by CalC (agarose gel)
Method: Prevention of cleavage by calicheamicin—protection by CalC was assessed. […] To test this theory, preliminary assays were performed with supercoiled pBlusecript plasmid DNA (“pBS”) as the template, and dithiothreitol (“DTT”) as the reductive initiator. […] Then 2.5 μL 10 mM DTT stock solution was added to the assay solution, and the assay was incubated an additional 1 hour at 37° C. DNA fragmentation was assessed by electrophoresis on a 1% agarose gel stained with ethidium bromide.
To test this theory, assays were performed with supercoiled pblusecript plasmid DNA (“pBS”) as the template, and dithiothreitol (“DTT”) as the reductive initiator. […] 2.5 μL 10 mM DTT stock solution was added to the assay solution, and the assay was incubated an additional 1 hour at 37° C.
DNA fragmentation was assessed by electrophoresis on a 1% agarose gel stained with ethidium bromide.

break light B = assay: Calicheamicin cleavage of break light B; settings: calicheamicin with DTT
break light A = assay: Molecular break light assay: cleavage of break light A by enediynes and Fe^+2-dependent agents
Method: Samples were analyzed with a FluoroMax-2 spectrofluorometer equipped with DataMax for Windows (Instruments S. A., Inc.; Edison, N.J.) and the temperature controlled (30° C., unless otherwise noted) by a Haake Circulator DC10. All samples were filtered prior to analysis and analyzed via a timebase scan (λex=485 nm, λEm=517 nm) in a Suprasil quartz cuvette (10 mm path) fitted with a magnetic stirring bar in a total volume of 2 mL. […] Total cleavage of the labeled oligonucleotide, confirmed by polyacrylamide gel electrophoresis (PAGE), was defined as the maximum fluorescence emission possible under saturated cleaving conditions. Emission units were converted to the amount of labeled oligonucleotide used within a procedure, thereby equating labeled oligonucleotide degradation as a function of the emission of fluorescence.
Enediyne antibiotics calicheamicin and esperamicin at varying concentrations (0.31, 0.78, 1.6, 3.2, 15.9, and 31.7 nM) were incubated in 40 mM Tris-HCl (pH 7.5) with 3.2 nM of the calicheamicin-specific labeled molecular break light oligonucleotide (A). DNA cleavage was initiated with the addition of 1 μL 100 mM dithiothreitol (“DTT”) to produce a final concentration of 50 μM DTT, and the reaction was monitored over 10 minutes via spectrofluorometry.
Pseudo-first order kinetic parameters were utilized to determine the initial velocities at each given enediyne concentration. Specifically, graphical representation of the data was based upon equation 2 where [A]t is the concentration of cleaved oligonucleotide at a given time (t) and [A]0 is the initial concentration of oligonucleotide in the assay. Least squares analysis gave the slope (k), or rate, which was converted to V by the relationship in equation 3. The maximum velocity achieved (Vmax) was then selected from the range of concentrations examined.
ln[A]t=−kt+ln[A]0 [Equation 2]
Bleomycin, an Fe^+2-dependent nucleic acid cleavage agent, is a natural metabolite from Streptomyces verticillus. Blenoxane (a mixture containing approximately 70% bleomycin A2 and 30% bleomycin B2) was dissolved in water & optically standardized (ε291=1.7×10^4M^−1 cm^−1). Bleomycin mediated cleavage was adapted from procedures outlined by Giloni et al. J. Biol. Chem. 256: 8608-8615 (1981). Several different concentrations of bleomycin (200 nM, 100 nM, 50 nM, 25 nM, 12.5 nM, 5 nM, and 2.5 nM) were incubated in 50 mM sodium phosphate, 2.5 mM ascorbate, at pH 7.5 and 37° C. with 3.2 nM of the molecular break light A.
The reaction was initiated by the addition of 65 mM Fe(II) and monitored over 5 minutes. This protocol was repeated with the addition of 5 mM sodium ascorbate to the above conditions. Pseudo-first order kinetic parameters were utilized to determine the initial velocities at each given bleomycin concentration as previously described.
In a first assay, 3.2 nM break light A was incubated in 40 mM Tris HCl and 2.5 mM ascorbate at 37° C. and pH 7.5. Cleavage was initiated by addition of MPE/Fe(II) in a 1.2:1 molar ratio to various concentrations. Final Fe(II) concentrations were 8 μM, 4 μM, 2 μM, 1 μM, 500 nM, 250 nM, and 125 nM.
In a second assay, 32 nM molecular break light A was incubated in 40 mM Tris and 2.5 mM sodium ascorbate at pH 7.5 and 37° C. Cleavage was initiated by addition of MPE/Fe(II) in a 1.2:1 molar ratio to various concentrations. Final Fe(II) concentrations were 50 nM, 125 nM, 250 nM, 500 nM, 1 μM, and 2 μM.
In a third assay, 32 nM break light A (calicheamicin-specific molecular break light oligonucleotide) was incubated in 40 mM Tris and 2.5 mM sodium ascorbate at pH 7.5 and 37° C.

For `CCN[C@H]1CO[C@@H](O[C@H]2[C@H](O[C@H]3C#C/C=C/C#C[C@@]4(O)CC(=O)C(NC(=O)OC)=C3/C4=C\CSSSC)O[C@H](C)[C@@H](NO[C@H]3C[C@H](O)[C@H](SC(=O)c4c(C)c(I)c(O[C@@H]5O[C@@H](C)[C@H](O)[C@@H](OC)[C@H]5O)c(OC)c4OC)[C@@H](C)O3)[C@@H]2O)C[C@@H]1OC` [Calicheamicinγ1^l, calicheamicin γ1^I], the DNA cleavage ([1]; calicheamicin in the absence of DTT (lane a)) was “no DNA cleavage”, the DNA cleavage ([1]; presence of DTT and calicheamicin (lane c)) was “efficient cleavage” and the “rate of cleavage of break light B compared with break light A” value (break light B) was “rate identical to that of break light A”. The “detection of agent by the assay (sensitivity range)” value (break light A; 3.2 nM break light A, conditions described) was “pM range”, the “maximum fluorescence upon cleavage, compared with DNaseI” value (break light A; 3.2 nM break light A, excess DTT) was “identical to that observed with DNaseI” and the “Turnover (Vmax/[Agent])” value (break light A; [DNA]total = 3.2 nM) was 0.007 s⁻¹. For the same compound, the Vmax (break light A; [DNA]total = 3.2 nM, 37° C.) was 0.011 ± 0.002^d nM sec^−1, the “Comparison to EDTA (fold enhancement over EDTA turnover)” value (break light A; [DNA]total = 3.2 nM, MPE as common agent) was 4.8 × 10^5 fold and the “enhancement of cleavage efficiency over bleomycin” value (break light A; from Table 1) was about 10 fold.
